Measured values published in patent US20230349922A1, “H2 Blockers Targeting Liver Macrophages for the Prevention and Treatment of Liver Disease and Cancer” (Université de Strasbourg, priority 2020, published 2023).

Tested on: HRH2/cAMP/PKA axis
Test: PLS assessment upon perturbation of the HRH2/cAMP/PKA axis in Huh7.5.1dif cells
Type: cell-based, human
Settings: histamine 10 μM + nizatidine 10 μM, 48 hours
Protocol: Histamine, 8-CPT, cAMP and H89 Treatment. Huh7.5.1^dif cells were cultured in DMEM containing 1% FBS and 1% DMSO and incubated with histamine (10 μM) or histamine+nizatidine (10 μM) for 48 hours. Fresh medium containing histamine was replenished every 12 hours. For 8-CPT cAMP and H89, Huh7.5.1^dif cells cultured in DMEM 1% DMSO and 1% FBS were incubated with 8-CPT cAMP (100 μM), H89 (1 μM) or DMSO as a control for 48 hours. Fresh medium containing 8-CPT cAMP was replenished every 12 hours.
Transcriptomic Analysis and PLS Calculation. Gene expression profiling and the 32 gene PLS 32 profiling were performed using 250-500 ng total RNA by using either nCounter Digital Analyzer system (NanoString) or the HumanHT-12 beadarray (Illumina) for the time-course experiments. PLS gene expression was normalized according to 6 housekeeping gene expression using GenePattern genomic analysis toolkits (Hoshida, PLOS ONE, 2010, 5: e15543; Peck et al., Genome Biol., 2006, 7: R61; Reich et al., Nature Genet., 2006, 38: 500-501). Induction or suppression of PLS risk signature was determined as previously reported by using Gene Set Enrichment Analysis (GSEA), implemented in GenePattern genomic analysis toolkits (Hoshida, PLOS ONE, 2010, 5: e15543; Peck et al., Genome Biol., 2006, 7: R61; Reich et al., Nature Genet., 2006, 38: 500-501). PLS was always determined by using CTRL cells as references. Results are presented as simplified heatmaps showing the classification of PLS global status as poor or good prognosis and the significance of induction/suppression of PLS genes (log 10 of false discovery rate (FDR) values). For each experiment, heatmaps show: in the upper part: the classification of PLS global status as poor (orange) or good (green) prognosis, and in the bottom part: the significance of induction (red) or suppression (blue) of PLS poor- or good-prognosis genes. Global status corresponds to the difference between low risk- and high risk-gene expression. The statistic tests, normalized enrichment score (NES) and FDR values are provided for each PLS experiment (poor- and good-prognosis genes variation and global status) in the Source Data file.

## CNC(=C[N+](=O)[O-])NCCSCc1csc(CN(C)C)n1 [Nizatidine, N-[2-[[[2-[(dimethylamino)methyl]-4-thizaolyl]methyl]thio]ethyl]-N′-methyl-2-nitro-1,1-ethene-diamine]
  histamine-induced PLS poor-prognosis status: reversal
